# Experimental data from patent US10174060B2, “Process for purifying monooctylin trichloride” (CHEMTURA CORPORATION, priority 2014, dated 2019).
# Columns and labels:
# [1] = cited from earlier work
# [2] = Extraction of mono-n-octyltin trichloride with aqueous sodium chloride phase (Example 7); type: physicochemical; settings: 16 mL organic mixture, 2.5 g saturated NaCl solution plus 5 g deionized water, 45° C.
# Protocol: 10.15 g of mono-n-octyltin trichloride, 1.95 g of di-n-butyl ether and 4.75 g of n-heptane were mixed to give of clear and homogeneous solution. […] 2.5 g of a saturated NaCl solution was were added. The mixture was stirred for ca. 10 minutes, and then transferred into a graduated glass cylinder. Phase separation could not be observed, because a suspension had formed. When further 5 g of deionized water were added and the mixture was heated to 45° C., 2 phases appeared. When they had settled, it became visible, that the volume of the organic phase was reduced from 16 mL to ca. 8 mL, indicating extraction of monooctyltin trichloride into the aqueous phase. Upon cooling to room temperature, the lower aqueous phase solidified.
# [3] = Extraction of mono-n-octyltin trichloride from organic phase into aqueous hydrochloric acid phase, dependence on chloride concentration (Example 5); type: physicochemical; settings: stepwise dilution with deionized water
# Protocol: 20.3 g of mono-n-octyltin trichloride, 3.9 g of di-n-butyl ether and 9.5 g of n-heptane were mixed to give of clear and homogeneous solution. 8.6 g (7.4 mL) of a 32% aqueous HCl solution were added. The mixture was stirred for ca. 10 minutes, and then transferred into a graduated glass cylinder. 2 phases appeared; they were allowed to settle.
# Portions of deionized water were added stepwise to the system, and the volume changes of organic and aqueous phases were noted. Volume decrease of the organic phase indicates extraction of monooctyltin into the aqueous phase.
# [4] = Extraction of mono-n-octyltin trichloride from organic phase into aqueous aluminum chloride phase, dependence on chloride concentration (Example 4); type: physicochemical; settings: stepwise dilution with deionized water
# Protocol: A mixture was prepared, consisting by weight of 55.7% mono-n-octyltin trichloride, 10.7% di-n-butyl ether, 26.2% n-heptane, 7.3% AlCl3. 10 g of this mixture were transferred into a graduated glass cylinder.
# Portions of deionized water were added stepwise to the system, and the volume changes of organic and aqueous phase were noted. Volume decrease of the organic phase indicates extraction of monooctyltin into the aqueous phase.
# [5] = Extraction of mono-n-octyltin trichloride into aqueous aluminum chloride phase, dependence on temperature (Example 6); type: physicochemical; settings: 30 minutes settling, 20 g mixture (18.5 mL) plus 8.4 g deionized water
# Protocol: A mixture was prepared, consisting by weight of 55.7% mono-n-octyltin trichloride, 10.7% di-n-butyl ether, 26.2% n-heptane, 7.3% AlCl3. To 20 g of this mixture (having a volume of 18.5 mL), 8.4 g of deionized water were added under stirring, and the resulting mixture was placed into a graduated glass cylinder.
# The temperature in the glass cylinder was adjusted to 20° C., and the phases were allowed to settle and separate for 30 minutes. The resulting volume of the organic phase was 8 mL.
# Subsequently, the temperature in the glass cylinder was adjusted to 40° C., and the phases were allowed to settle and separate for 30 minutes. The resulting volume of the organic phase was 10 mL.
# Subsequently, the temperature in the glass cylinder was adjusted to 60° C., and the phases were allowed to settle and separate for 30 minutes. The resulting volume of the organic phase was 14 mL.
SMILES,solubility in water [1],volume of the organic phase after extraction [2],HCl concentration at which extraction becomes particularly efficient [3],aqueous aluminum chloride concentration at which extraction becomes particularly efficient [4] [%],volume of the organic phase ([5]; 20° C.) [mL],volume of the organic phase ([5]; 40° C.) [mL],volume of the organic phase ([5]; 60° C.) [mL]
CCCCCCC[CH2][Sn]([Cl])([Cl])[CH2]CCCCCCC [dioctyltin dichloride],practically insoluble,,,,,,
CCCCCCC[CH2][Sn]([Cl])([Cl])[Cl] [mono-n-octyltin trichloride],practically insoluble,ca. 8 mL,approx. 16%,≤ 17,8,10,14
CCC[CH2][Sn]([Cl])([Cl])[Cl] [monobutyltin trichloride],miscible,,,,,,
CCCCCCC[CH2][Sn]([Cl])([CH2]CCCCCCC)[CH2]CCCCCCC [trioctyltin chloride],practically insoluble,,,,,,
